In article PMC12562681, “Targeting a Tau Kinase Cdk5, Cyclin-Dependent Kinase: A Blood-Based Diagnostic Marker and Therapeutic Earmark for Alzheimer’s Disease” (Biomolecules, 2025):
Like-named read-outs stand apart in the source and are kept apart here. Peptide text beside a SMILES is read from it.

What was measured:
Cdk5 [1] = target: T1, Cdk5 (Homo sapiens, UniProt Q00535); experiment: Binding study of peptide by SPR (Ni-NTA chip, immobilized recombinant Cdk5); details: recombinant Cdk5 on Ni-NTA sensor chip, peptide 0.4, 0.6 and 1 µM, BIA evaluation 3.0, read-out: dissociation constant (KD)
T1 construct: host or cells: E. coli BL21
Experimental: Different concentrations of purified recombinant human Cdk5 and Mcl1 proteins were passed over the respective flow cells, and corresponding response units (RU) were noted. The standard curve was prepared by plotting different concentrations of pure proteins versus the corresponding RU (Figure S1). Serum samples were diluted (1:79) with HBS-EP buffer and passed over the respective flow cell. The RU for each sample was noted, and the concentration of Cdk5 and Mcl1 in the serum sample was derived from their respective standard curves.
The recombinant Cdk5 protein was immobilized on the Ni-NTA sensor chip by passing NiCl2 solution and the protein. Different concentrations of peptide YCWS (0.4 µM, 0.6 µM, and 1 µM) were passed over it, and changes in RU were noted. The association constant (KA) and dissociation constant (KD) values were calculated using the BIA evaluation 3.0 software.

HEK-293 cells = experiment: Cell cytotoxicity assay in HEK-293 cells (MTT); type: cell-based; details: 24 h, 48 h and 72 h, up to 50 µM, triplicate
Excerpt: (§1) SH-SY5Y and HEK 293 cells were purchased from NCCS, Pune, India, and were maintained in Ham’s F12 (cat. no. 21700075) and Dulbecco’s Modified Eagle Medium (DMEM, cat. no. 12800017) nutrient media (Gibco, Waltham, MA, USA), respectively, supplemented with 10% (v/v) Fetal Bovine Serum (FBS, cat. no. 10270106) and 1% antibiotic–antimycotic solution (cat. no. CC4003010L, CELL clone, New Delhi, India). The SH-SY5Y cells used in the experiment were of passage number 42–46. Cells were maintained as a monolayer culture at 37 °C with 5% CO2 and 95% relative humidity. Potential contamination in all cells was assessed through STR profiling (DNA Forensic Laboratory Private Limited, New Delhi, India).
The peptide’s effect was initially assessed using the normal HEK 293 cell line, and the cell viability was determined by the 3-(4,5-dimethylthiazol-2-yl)-2,5-diphenyltetrazolium bromide (MTT) (cat. no. T0793) reduction assay. Cells were seeded in 96-well plates at a density of 5 × 10^3 cells per 100 μL per well. Cells were cultured for 24 h and then treated with different concentrations of peptide, i.e., 10 µM, 20 µM, and 50 µM, for different time intervals (24 h, 48 h, and 72 h). At the end of treatment, 10 μL MTT (5 mg/mL) was added in each well and incubated for 4 h at 37 °C. […] The absorbance value at 572 nm was measured using a microplate reader. […]

SH-SY5Y cells = type: cell-based; details: triplicate
Excerpt: as §1
Aggregated Aβ25–35 was employed to induce neurotoxicity in SH-SY5Y cells due to its ability to replicate the physiological and biological characteristics of Aβ-amyloid, known to mediate neurotoxic effects and contribute to neuronal cell damage. The effect of peptide on neurotoxicity caused by aggregated Aβ25–35 was assessed via MTT assay. Cells were seeded in 96-well plates at a density of 1 × 10^4 cells per 100 μL per well. Cells were cultured for 24 h and then treated with 20 µM retinoic acid for differentiation. The culture medium was routinely replaced every alternate day for a period of seven days. A stock solution of 20 mM Aβ25–35 was prepared by dissolving 2.12 mg of synthesized Aβ25–35 in 100 µL of 1× PBS and allowed to aggregate at 37 °C for 7 days. Cells were treated with 20 µM aggregated Aβ25–35, along with different concentrations of the peptide YCWS (2 µM, 5 µM, 10 µM, 15 µM, and 20 µM) for 24 h, 48 h, and 72 h. After completion of the treatment duration, cell viability was determined using the MTT assay as described above.

SHSY-5Y cells = experiment: Cytotoxicity of peptide in SHSY-5Y cells; type: cell-based; details: discussion statement, concentration and time not given
Cdk5 [2] = experiment: Cdk5 expression by Western blot in Aβ25–35-treated SH-SY5Y cells; type: cell-based; details: aggregated Aβ25–35, SH-SY5Y
Experimental: (§2) The concentration of total protein in cell lysate was measured using the bicinchoninic acid (BCA) assay. Samples were prepared using the 6× protein loading dye and incubated at 95 °C for 15 min. Equal concentrations of cell lysate (50 µg/lane) were fractionated by 10% SDS-PAGE and transferred to PVDF membrane. The membrane was blocked with 5% NFM for 2 h and then probed with their respective primary antibodies: Cdk5 (1:400) and Mcl1 (1:1000), mouse IgG anti-β-amyloid (1:200) (Sc28365), mouse IgG anti-Tau (Tau-46) (1:200) (Santa Cruz Biotechnology Inc., Dallas, TX, USA, Sc32274), rabbit IgG anti-phospho-Tau (Thr181) (1:350) (Cell Signaling Technology, Inc., Danvers, MA, USA, DAF4G), and rabbit antibody IgG anti-β-actin (1:1000) (Cell Signaling Technology, Inc., Danvers, MA, USA). The membranes were incubated with the secondary anti-rabbit and anti-mouse (cat. no. Sc2004, Sc2005) HRP-conjugated antibody (1:4000) at room temperature for 1 h.

Cdk5 mRNA = Cdk5 mRNA by RT-PCR in Aβ25–35-treated SH-SY5Y cells; type: cell-based; details: aggregated Aβ25–35 alone; δ-δ CT, GAPDH; triplicate
Excerpt: [36]; Mcl1 forward primer-[NT] and reverse primer-[…] forward primer-[NT] and reverse primer-[NT].

Aβ-amyloid = Aβ-amyloid expression by Western blot in Aβ25–35-treated SH-SY5Y cells; type: cell-based; details: aggregated Aβ25–35 alone
Experimental: as §2

Tau = Tau expression by Western blot in Aβ25–35-treated SH-SY5Y cells; type: cell-based; details: aggregated Aβ25–35 alone
Experimental: as §2

phospho-Tau (Thr181) = experiment: p-Tau expression by Western blot in Aβ25–35-treated SH-SY5Y cells; type: cell-based; details: aggregated Aβ25–35 alone
Experimental: as §2

T1 sequence (Q00535 whole entry): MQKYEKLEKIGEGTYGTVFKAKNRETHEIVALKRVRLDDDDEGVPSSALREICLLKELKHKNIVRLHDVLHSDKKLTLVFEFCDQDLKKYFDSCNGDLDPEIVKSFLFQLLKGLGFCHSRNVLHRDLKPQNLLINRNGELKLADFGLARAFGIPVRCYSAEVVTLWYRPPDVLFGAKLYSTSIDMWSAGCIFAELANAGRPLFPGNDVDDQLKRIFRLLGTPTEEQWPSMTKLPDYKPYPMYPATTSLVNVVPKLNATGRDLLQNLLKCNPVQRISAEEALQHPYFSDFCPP

SMILES | Kd (Cdk5 [1]) | cytotoxicity, HEK-293 cells (HEK-293 cells) | cell viability, rescue (SH-SY5Y cells; YCWS 2 µM + 20 µM aggregated Aβ25–35, MTT, time of value not stated (24, 48, 72 h tested)) | cell viability, rescue (SH-SY5Y cells; YCWS 5 µM + 20 µM aggregated Aβ25–35, MTT, time of value not stated (24, 48, 72 h tested)) | cell viability, rescue (SH-SY5Y cells; YCWS 10 µM + 20 µM aggregated Aβ25–35, MTT, time of value not stated (24, 48, 72 h tested)) | cell viability, rescue (SH-SY5Y cells; YCWS 15 µM + 20 µM aggregated Aβ25–35, MTT, time of value not stated (24, 48, 72 h tested)) | cell viability, rescue (SH-SY5Y cells; YCWS 20 µM ("up to") + 20 µM aggregated Aβ25–35, MTT, p < 0.001 vs Aβ (Mann–Whitney), time of value not stated) | cytotoxicity, SHSY-5Y cells (SHSY-5Y cells) | Cdk5 protein expression (Cdk5 [2]) | Cdk5 mRNA expression, fold vs control group (Cdk5 mRNA) | Aβ-amyloid expression (Aβ-amyloid) | tau expression (Tau) | p-Tau expression (phospho-Tau (Thr181))
N[C@@H](Cc1ccc(O)cc1)C(=O)N[C@@H](CS)C(=O)N[C@@H](Cc1c[nH]c2ccccc12)C(=O)N[C@@H](CO)C(=O)O [YCWS] (H-YCWS-OH) | 3.94 nM | nontoxic | 87.28% | 91.47% | 92.20% | 98.27% | 98.55% | non-toxic | – | – | – | – | –
CC[C@H](C)[C@H](NC(=O)[C@H](C)NC(=O)CNC(=O)[C@H](CCCCN)NC(=O)[C@H](CC(N)=O)NC(=O)[C@H](CO)NC(=O)CN)C(=O)N[C@H](C(=O)NCC(=O)N[C@@H](CC(C)C)C(=O)N[C@@H](CCSC)C(=O)O)[C@@H](C)CC [Aβ25–35] (H-GSNKGAIIGLM-OH; N-terminus and C-terminus assumed) | – | – | – | – | – | – | – | – | increased the expression of Cdk5 | 1.85 fold | increased | increased | increased
